# Measured values: publication PMC5736175, “Nicotinic alpha 7 receptor agonists EVP-6124 and BMS-933043, attenuate scopolamine-induced deficits in visuo-spatial paired associates learning” (PLoS ONE, 2017)
# Several values for one entry are separate records, joined by “and”; a condition that tells them apart may be missing. Equal entries are not always repeated.
# Test: Plasma pharmacokinetics in satellite animals (LC-MS/MS), 60 min after i.m. dose
# Conditions: for concentration at 60 min: cynomolgus monkey, in vivo, nM total compound in plasma from satellite animals
# Protocol: For all compounds, plasma pharmacokinetic studies were conducted in a separate cohort of cynomolgus monkeys (N = 2–3 subjects per dose) before beginning vsPAL testing to help guide dose selection. Blood samples were obtained with the animals awake and sitting in a primate chair.
# Plasma concentrations of test compounds were determined using LC-MS/MS assays. In brief, 50 μL plasma and sample containing compounds was extracted by protein precipitation method with 150 μL acetonitrile containing an internal standard. A 5 μL sample of supernatant was injected into the LC-MS/MS system. Analytes were separated by reversed phase chromatography and detection of each analyte was achieved through selected reaction monitoring mode of mass spectrometry. Samples were quantified by calculated peak area ratio of analyte and internal standard against a calibration curve.
smiles,measurement,setting,value
"c1cn(-c2cc(NC3=NC[C@@]4(CN5CCC4CC5)O3)ncn2)cn1 [BMS-933043, (2R)-N-(6-(1H-imidazol-1-yl)-4-pyrimidinyl)-4'H-spiro[4-azabicyclo[2.2.2]octane-2,5'-[1, 3]oxazol]-2'-amine]","nM total compound in plasma from satellite animals, 60 min","0.03 mg/kg i.m., individual subjects",16.6 nM and 18.4 nM
same,"nM total compound in plasma from satellite animals, 60 min","0.10 mg/kg i.m., individual subjects",60.9 nM and 70.1 nM
same,"nM total compound in plasma from satellite animals, 60 min","0.30 mg/kg i.m., individual subjects",145.0 nM and 280.0 nM and 133.0 nM
same,"nM total compound in plasma from satellite animals, 60 min","1.00 mg/kg i.m., individual subjects",1100.0 nM
same,concentration at 60 min,"0.03 mg/kg, 0.03 mg/kg i.m., individual subjects",20.1 nM
same,concentration at 60 min,"0.03 mg/kg, 0.03 mg/kg i.m., mean",18.4 nM
same,concentration at 60 min,"0.1 mg/kg, 0.10 mg/kg i.m., individual subjects",66.6 nM
same,concentration at 60 min,"0.1 mg/kg, 0.10 mg/kg i.m., mean",65.9 nM
same,concentration at 60 min,"0.3 mg/kg, 0.30 mg/kg i.m., mean",186 nM
same,concentration at 60 min,"1 mg/kg, 1.00 mg/kg i.m., individual subjects",739 nM
same,concentration at 60 min,"1 mg/kg, 1.00 mg/kg i.m., mean",920 nM
